According to article PMC4823954, “From fighting depression to conquering tumors: a novel tricyclic thiazepine compound as a tubulin polymerization inhibitor” (Cell Death & Disease, 2016):

Legend:
Experiment in all cases: KINOMEscan
Format in all cases: binding
Conditions in all cases: read-out: % Ctrl
[1] = molecular target: T1, EPHA1 (Homo sapiens, UniProt P21709)
T1 construct: purchased DiscoveRx KINOMEscan
How it was run: (§1)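 Competition binding panel of 442 non-mutant kinases: test compound at 5 and 10 μM competed with an active-site-directed ligand for 1 h with shaking. Bound kinase was eluted with 0.5 μM ligand and quantified by qPCR; %Ctrl = (compound − positive control)/(DMSO − positive control) × 100, lower meaning tighter binding.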

[2] = molecular target: T2, MST4 (Homo sapiens, UniProt Q9P289)
T2 construct: purchased DiscoveRx KINOMEscan
How it was run: as §1

[3] = molecular target: T3, PLK1 (Homo sapiens, UniProt P53350)
T3 construct: purchased DiscoveRx KINOMEscan
How it was run: as §1

[4] = molecular target: T4, BMPR2 (Homo sapiens, UniProt Q13873)
T4 construct: purchased DiscoveRx KINOMEscan
How it was run: as §1

[5] = molecular target: T5, DCAMKL2 (Homo sapiens, UniProt Q8N568)
T5 construct: purchased DiscoveRx KINOMEscan
How it was run: as §1

[6] = molecular target: T6, ABL1-phosphorylated (Homo sapiens, UniProt P00519)
T6 construct: purchased DiscoveRx KINOMEscan
How it was run: as §1

[7] = molecular target: T7, ABL1(F317L)-nonphosphorylated (Homo sapiens, UniProt P00519, F317L)
T7 construct: purchased DiscoveRx KINOMEscan

[8] = molecular target: T8, MKK7 (Homo sapiens, UniProt O14733)
T8 construct: purchased DiscoveRx KINOMEscan
How it was run: as §1

[9] = molecular target: T9, MEK4 (Homo sapiens, UniProt P45985)
T9 construct: purchased DiscoveRx KINOMEscan
How it was run: as §1

[10] = molecular target: T10, VRK2 (Homo sapiens, UniProt Q86Y07)
T10 construct: purchased DiscoveRx KINOMEscan
How it was run: as §1

[11] = molecular target: T11, CLK4 (Homo sapiens, UniProt Q9HAZ1)
T11 construct: purchased DiscoveRx KINOMEscan
How it was run: as §1

[12] = molecular target: T12, ERBB3 (Homo sapiens, UniProt P21860)
T12 construct: purchased DiscoveRx KINOMEscan
How it was run: as §1

[13] = molecular target: T13, PAK2 (Homo sapiens, UniProt Q13177)
T13 construct: purchased DiscoveRx KINOMEscan
How it was run: as §1

[14] = molecular target: T14, ABL1(M351T)-phosphorylated (Homo sapiens, UniProt P00519, M351T)
T14 construct: purchased DiscoveRx KINOMEscan

[15] = molecular target: T15, TNK2 (Homo sapiens, UniProt Q07912)
T15 construct: purchased DiscoveRx KINOMEscan
How it was run: as §1

[16] = molecular target: T16, RET (Homo sapiens, UniProt P07949)
T16 construct: purchased DiscoveRx KINOMEscan
How it was run: as §1

[17] = molecular target: T17, MAP3K3 (Homo sapiens, UniProt Q99759)
T17 construct: purchased DiscoveRx KINOMEscan
How it was run: as §1

[18] = molecular target: T18, CSNK1G3 (Homo sapiens, UniProt Q9Y6M4)
T18 construct: purchased DiscoveRx KINOMEscan
How it was run: as §1

[19] = molecular target: T19, DAPK2 (Homo sapiens, UniProt Q9UIK4)
T19 construct: purchased DiscoveRx KINOMEscan
How it was run: as §1

[20] = molecular target: T20, MAP4K4 (Homo sapiens, UniProt O95819)
T20 construct: purchased DiscoveRx KINOMEscan
How it was run: as §1

[21] = molecular target: T21, STK35 (Homo sapiens, UniProt Q8TDR2)
T21 construct: purchased DiscoveRx KINOMEscan
How it was run: as §1

[22] = molecular target: T22, NEK1 (Homo sapiens, UniProt Q96PY6)
T22 construct: purchased DiscoveRx KINOMEscan
How it was run: as §1

[23] = molecular target: T23, EGFR(S752-I759del) (Homo sapiens, UniProt P00533, DEL752-759)
T23 construct: purchased DiscoveRx KINOMEscan

[24] = molecular target: T24, AURKC (Homo sapiens, UniProt Q9UQB9)
T24 construct: purchased DiscoveRx KINOMEscan
How it was run: as §1

[25] = molecular target: T25, TYK2(JH1domain-catalytic) (Homo sapiens, UniProt P29597)
T25 construct: TYK2(JH1domain-catalytic); purchased DiscoveRx KINOMEscan
How it was run: as §1

[26] = molecular target: T26, TGFBR1 (Homo sapiens, UniProt P36897)
T26 construct: purchased DiscoveRx KINOMEscan
How it was run: as §1

[27] = molecular target: T27, TNNI3K (Homo sapiens, UniProt Q59H18)
T27 construct: purchased DiscoveRx KINOMEscan
How it was run: as §1

[28] = molecular target: T28, AAK1 (Homo sapiens, UniProt Q2M2I8)
T28 construct: purchased DiscoveRx KINOMEscan
How it was run: as §1

[29] = molecular target: T29, ASK1 (Homo sapiens, UniProt Q99683)
T29 construct: purchased DiscoveRx KINOMEscan
How it was run: as §1

[30] = molecular target: T30, CDK7 (Homo sapiens, UniProt P50613)
T30 construct: purchased DiscoveRx KINOMEscan
How it was run: as §1

T1 sequence (P21709 26-976): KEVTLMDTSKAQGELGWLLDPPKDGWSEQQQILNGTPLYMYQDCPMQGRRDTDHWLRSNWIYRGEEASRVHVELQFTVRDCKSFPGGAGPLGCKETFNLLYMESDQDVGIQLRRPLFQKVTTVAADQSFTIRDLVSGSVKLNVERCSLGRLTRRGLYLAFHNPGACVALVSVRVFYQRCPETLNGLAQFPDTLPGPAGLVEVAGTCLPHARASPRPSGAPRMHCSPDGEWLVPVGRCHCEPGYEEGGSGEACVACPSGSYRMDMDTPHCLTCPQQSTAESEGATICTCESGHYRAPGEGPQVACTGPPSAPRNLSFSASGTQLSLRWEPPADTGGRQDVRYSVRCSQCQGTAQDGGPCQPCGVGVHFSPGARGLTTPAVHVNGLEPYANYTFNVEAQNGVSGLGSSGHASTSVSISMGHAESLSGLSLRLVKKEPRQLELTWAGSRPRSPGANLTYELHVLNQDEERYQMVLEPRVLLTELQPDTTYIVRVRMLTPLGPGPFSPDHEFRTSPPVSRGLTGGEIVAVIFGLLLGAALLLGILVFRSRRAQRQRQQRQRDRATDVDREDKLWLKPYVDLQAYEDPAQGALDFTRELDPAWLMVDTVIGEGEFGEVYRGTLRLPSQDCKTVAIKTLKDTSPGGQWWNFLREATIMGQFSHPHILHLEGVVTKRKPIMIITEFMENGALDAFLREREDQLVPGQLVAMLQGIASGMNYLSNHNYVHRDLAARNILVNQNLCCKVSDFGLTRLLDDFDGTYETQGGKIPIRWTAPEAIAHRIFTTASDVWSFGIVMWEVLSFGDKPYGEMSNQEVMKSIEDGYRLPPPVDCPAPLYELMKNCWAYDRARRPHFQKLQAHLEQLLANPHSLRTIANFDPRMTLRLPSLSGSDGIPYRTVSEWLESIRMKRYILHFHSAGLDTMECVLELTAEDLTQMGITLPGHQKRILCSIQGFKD
T18 sequence (Q9Y6M4 whole entry): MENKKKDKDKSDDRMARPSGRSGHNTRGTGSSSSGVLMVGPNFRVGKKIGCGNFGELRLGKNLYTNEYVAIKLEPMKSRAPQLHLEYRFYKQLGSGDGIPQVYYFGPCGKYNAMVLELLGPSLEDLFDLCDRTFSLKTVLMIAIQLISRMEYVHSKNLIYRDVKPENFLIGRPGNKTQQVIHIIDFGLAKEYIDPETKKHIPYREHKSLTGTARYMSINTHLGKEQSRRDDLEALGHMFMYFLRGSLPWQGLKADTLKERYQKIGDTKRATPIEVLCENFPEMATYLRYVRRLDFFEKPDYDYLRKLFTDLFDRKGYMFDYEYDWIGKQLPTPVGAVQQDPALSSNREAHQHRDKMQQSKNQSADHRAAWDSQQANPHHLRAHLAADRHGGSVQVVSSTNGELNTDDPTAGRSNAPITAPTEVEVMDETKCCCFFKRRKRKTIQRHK
T21 sequence (Q8TDR2 whole entry): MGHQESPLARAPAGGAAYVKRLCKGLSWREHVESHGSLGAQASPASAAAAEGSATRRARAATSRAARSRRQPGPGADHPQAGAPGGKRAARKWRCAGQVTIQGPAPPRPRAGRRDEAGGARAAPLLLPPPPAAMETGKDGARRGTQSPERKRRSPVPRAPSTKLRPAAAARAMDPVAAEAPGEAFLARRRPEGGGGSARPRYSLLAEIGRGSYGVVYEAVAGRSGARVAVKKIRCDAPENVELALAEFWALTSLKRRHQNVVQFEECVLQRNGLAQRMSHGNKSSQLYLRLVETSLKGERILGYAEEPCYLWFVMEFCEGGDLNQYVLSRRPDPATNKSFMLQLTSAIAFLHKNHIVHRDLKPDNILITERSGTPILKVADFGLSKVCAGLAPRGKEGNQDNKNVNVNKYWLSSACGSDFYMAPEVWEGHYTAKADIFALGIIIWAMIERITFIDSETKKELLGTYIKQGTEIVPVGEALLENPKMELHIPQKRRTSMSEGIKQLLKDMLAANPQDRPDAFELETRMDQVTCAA
T28 sequence (Q2M2I8 whole entry): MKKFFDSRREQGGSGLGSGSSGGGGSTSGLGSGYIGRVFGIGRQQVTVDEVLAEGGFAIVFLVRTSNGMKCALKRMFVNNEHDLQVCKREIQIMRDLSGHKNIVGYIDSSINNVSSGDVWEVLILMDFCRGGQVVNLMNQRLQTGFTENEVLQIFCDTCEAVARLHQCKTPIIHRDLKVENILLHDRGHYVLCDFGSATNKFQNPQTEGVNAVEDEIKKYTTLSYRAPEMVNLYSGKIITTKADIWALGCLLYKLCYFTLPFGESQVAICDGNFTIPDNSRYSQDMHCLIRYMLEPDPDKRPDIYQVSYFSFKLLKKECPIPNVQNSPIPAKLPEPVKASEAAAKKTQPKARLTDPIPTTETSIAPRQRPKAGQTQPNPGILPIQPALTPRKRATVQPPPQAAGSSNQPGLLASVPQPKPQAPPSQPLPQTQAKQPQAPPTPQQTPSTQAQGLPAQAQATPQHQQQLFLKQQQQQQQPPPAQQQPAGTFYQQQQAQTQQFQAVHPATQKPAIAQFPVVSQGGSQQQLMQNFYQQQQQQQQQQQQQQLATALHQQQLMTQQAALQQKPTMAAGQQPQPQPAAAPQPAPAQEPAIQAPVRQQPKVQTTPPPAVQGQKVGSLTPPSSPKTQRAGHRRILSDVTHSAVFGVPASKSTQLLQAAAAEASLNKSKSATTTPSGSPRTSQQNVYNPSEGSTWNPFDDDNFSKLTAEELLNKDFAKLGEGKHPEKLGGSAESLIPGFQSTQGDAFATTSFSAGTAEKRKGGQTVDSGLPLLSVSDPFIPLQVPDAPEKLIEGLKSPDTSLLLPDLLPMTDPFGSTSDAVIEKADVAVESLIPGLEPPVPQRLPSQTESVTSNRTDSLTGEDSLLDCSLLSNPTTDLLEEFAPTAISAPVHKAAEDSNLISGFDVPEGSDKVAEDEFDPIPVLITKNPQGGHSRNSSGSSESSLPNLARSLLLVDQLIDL
T25 sequence (P29597 888-1187 limits assumed): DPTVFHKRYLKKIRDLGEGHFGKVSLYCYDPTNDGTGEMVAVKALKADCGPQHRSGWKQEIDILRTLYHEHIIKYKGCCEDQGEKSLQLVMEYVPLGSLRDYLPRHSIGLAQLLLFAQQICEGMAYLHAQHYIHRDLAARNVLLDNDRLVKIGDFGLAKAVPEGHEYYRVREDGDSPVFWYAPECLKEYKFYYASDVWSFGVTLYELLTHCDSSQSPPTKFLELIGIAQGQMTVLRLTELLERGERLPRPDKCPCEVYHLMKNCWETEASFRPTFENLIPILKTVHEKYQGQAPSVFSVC
T2 sequence (Q9P289 whole entry): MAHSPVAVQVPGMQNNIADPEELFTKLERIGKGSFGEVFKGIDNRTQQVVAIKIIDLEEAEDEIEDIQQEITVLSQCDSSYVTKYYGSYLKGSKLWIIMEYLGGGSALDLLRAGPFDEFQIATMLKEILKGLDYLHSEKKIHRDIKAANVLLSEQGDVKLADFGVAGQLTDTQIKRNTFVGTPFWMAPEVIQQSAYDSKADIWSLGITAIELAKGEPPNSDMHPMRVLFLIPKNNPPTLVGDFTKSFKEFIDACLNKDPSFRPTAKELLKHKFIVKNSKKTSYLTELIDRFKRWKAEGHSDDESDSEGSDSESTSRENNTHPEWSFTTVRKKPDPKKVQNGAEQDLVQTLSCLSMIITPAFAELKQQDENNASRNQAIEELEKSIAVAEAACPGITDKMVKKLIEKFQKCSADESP
T15 sequence (Q07912 whole entry): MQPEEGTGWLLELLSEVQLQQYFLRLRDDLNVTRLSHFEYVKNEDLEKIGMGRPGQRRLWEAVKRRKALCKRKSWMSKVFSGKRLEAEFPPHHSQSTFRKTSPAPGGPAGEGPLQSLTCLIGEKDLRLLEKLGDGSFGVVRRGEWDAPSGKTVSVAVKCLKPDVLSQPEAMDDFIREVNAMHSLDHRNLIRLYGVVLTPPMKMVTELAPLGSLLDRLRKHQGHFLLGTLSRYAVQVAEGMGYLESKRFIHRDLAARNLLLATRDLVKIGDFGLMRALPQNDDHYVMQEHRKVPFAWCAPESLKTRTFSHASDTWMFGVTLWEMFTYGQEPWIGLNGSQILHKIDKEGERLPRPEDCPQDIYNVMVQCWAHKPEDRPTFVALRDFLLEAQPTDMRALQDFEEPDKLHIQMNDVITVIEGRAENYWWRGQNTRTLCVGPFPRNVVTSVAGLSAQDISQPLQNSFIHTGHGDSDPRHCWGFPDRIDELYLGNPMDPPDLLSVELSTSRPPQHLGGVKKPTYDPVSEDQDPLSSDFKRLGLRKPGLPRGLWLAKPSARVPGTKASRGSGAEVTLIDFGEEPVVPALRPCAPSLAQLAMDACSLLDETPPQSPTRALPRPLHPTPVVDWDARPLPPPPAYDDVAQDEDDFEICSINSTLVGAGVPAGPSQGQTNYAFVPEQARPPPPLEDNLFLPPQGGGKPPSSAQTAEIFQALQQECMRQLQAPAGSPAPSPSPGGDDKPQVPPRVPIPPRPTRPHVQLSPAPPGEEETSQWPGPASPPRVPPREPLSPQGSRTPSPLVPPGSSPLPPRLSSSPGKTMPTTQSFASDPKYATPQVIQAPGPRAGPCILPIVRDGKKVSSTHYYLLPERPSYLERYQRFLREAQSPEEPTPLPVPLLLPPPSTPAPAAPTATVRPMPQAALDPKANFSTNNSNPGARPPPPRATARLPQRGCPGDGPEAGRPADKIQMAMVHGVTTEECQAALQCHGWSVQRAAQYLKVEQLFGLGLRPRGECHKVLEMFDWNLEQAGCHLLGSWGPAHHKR
T30 sequence (P50613 whole entry): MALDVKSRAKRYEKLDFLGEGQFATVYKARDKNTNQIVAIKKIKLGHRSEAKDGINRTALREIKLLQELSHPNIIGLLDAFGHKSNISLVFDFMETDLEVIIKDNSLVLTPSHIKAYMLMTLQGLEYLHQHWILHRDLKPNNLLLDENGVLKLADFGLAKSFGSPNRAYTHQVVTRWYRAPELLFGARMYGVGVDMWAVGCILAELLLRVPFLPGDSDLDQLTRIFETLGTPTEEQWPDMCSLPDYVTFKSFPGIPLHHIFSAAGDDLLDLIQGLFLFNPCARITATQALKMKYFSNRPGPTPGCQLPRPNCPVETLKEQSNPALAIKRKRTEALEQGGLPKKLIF

## Cc1ccc(C2=Nc3cccnc3S(=O)(=O)c3ccccc32)cc1 [TBPT, 6-(p-tolyl)benzo[f] pyrido[2,3-b][1,4] thiazepine 11,11-dioxide]
[1]; 5 μM
  remaining binding at 5 µM: 100%
[1]; 10 μM
  remaining binding at 10 µM: 94%
[2]; 5 μM
  remaining binding at 5 µM: 63%
[2]; 10 μM
  remaining binding at 10 µM: 99%
[3]; 5 μM
  remaining binding at 5 µM: 76%
[3]; 10 μM
  remaining binding at 10 µM: 80%
[4]; 5 μM
  remaining binding at 5 µM: 85%
[4]; 10 μM
  remaining binding at 10 µM: 100%
[5]; 5 μM
  remaining binding at 5 µM: 100%
[5]; 10 μM
  remaining binding at 10 µM: 100%
[6]; 5 μM
  remaining binding at 5 µM: 72%
[6]; 10 μM
  remaining binding at 10 µM: 97%
[7]; 5 μM
  remaining binding at 5 µM: 80%
[7]; 10 μM
  remaining binding at 10 µM: 100%
[8]; 5 μM
  remaining binding at 5 µM: 100%
[8]; 10 μM
  remaining binding at 10 µM: 100%
[9]; 5 μM
  remaining binding at 5 µM: 82%
[9]; 10 μM
  remaining binding at 10 µM: 100%
[10]; 5 μM
  remaining binding at 5 µM: 100%
[10]; 10 μM
  remaining binding at 10 µM: 69%
[11]; 5 μM
  remaining binding at 5 µM: 93%
[11]; 10 μM
  remaining binding at 10 µM: 96%
[12]; 5 μM
  remaining binding at 5 µM: 45%
[12]; 10 μM
  remaining binding at 10 µM: 100%
[13]; 5 μM
  remaining binding at 5 µM: 100%
[13]; 10 μM
  remaining binding at 10 µM: 100%
[14]; 5 μM
  remaining binding at 5 µM: 81%
[14]; 10 μM
  remaining binding at 10 µM: 100%
[15]; 5 μM
  remaining binding at 5 µM: 100%
[15]; 10 μM
  remaining binding at 10 µM: 100%
[16]; 5 μM
  remaining binding at 5 µM: 100%
[16]; 10 μM
  remaining binding at 10 µM: 87%
[17]; 5 μM
  remaining binding at 5 µM: 79%
[17]; 10 μM
  remaining binding at 10 µM: 92%
[18]; 5 μM
  remaining binding at 5 µM: 100%
[18]; 10 μM
  remaining binding at 10 µM: 98%
[19]; 5 μM
  remaining binding at 5 µM: 100%
[19]; 10 μM
  remaining binding at 10 µM: 99%
[20]; 5 μM
  remaining binding at 5 µM: 94%
[20]; 10 μM
  remaining binding at 10 µM: 63%
[21]; 5 μM
  remaining binding at 5 µM: 97%
[21]; 10 μM
  remaining binding at 10 µM: 100%
[22]; 5 μM
  remaining binding at 5 µM: 90%
[22]; 10 μM
  remaining binding at 10 µM: 100%
[23]; 5 μM
  remaining binding at 5 µM: 79%
[23]; 10 μM
  remaining binding at 10 µM: 100%
[24]; 5 μM
  remaining binding at 5 µM: 85%
[24]; 10 μM
  remaining binding at 10 µM: 96%
[25]; 5 μM
  remaining binding at 5 µM: 69%
[25]; 10 μM
  remaining binding at 10 µM: 100%
[26]; 5 μM
  remaining binding at 5 µM: 100%
[26]; 10 μM
  remaining binding at 10 µM: 85%
[27]; 5 μM
  remaining binding at 5 µM: 100%
[27]; 10 μM
  remaining binding at 10 µM: 89%
[28]; 5 μM
  remaining binding at 5 µM: 100%
[28]; 10 μM
  remaining binding at 10 µM: 89%
[29]; 5 μM
  remaining binding at 5 µM: 100%
[29]; 10 μM
  remaining binding at 10 µM: 100%
[30]; 5 μM
  remaining binding at 5 µM: 83%
[30]; 10 μM
  remaining binding at 10 µM: 100%
